Reference: patent publication US6328728A, “Composition and method for enhancing electrotransport agent delivery” (Alza Corporation, priority 1997, dated 2001)
Values belong to the molecule of their own block, whether it stands above or below them.

What was measured:
[1] = Measurement of circular dichroism (mean residue ellipticity at 222 nm); type: physicochemical; conditions: insulinotropin as agent
From the text: In general, the structure of a polypeptide in an aqueous buffered solution is in constant flux between portions thereof being random coil and alpha-helix configurations. For the polypeptides used in the following examples, the predominant structure is a random coil since the alpha-helix configuration is unstable in the absence of bound surfactant. According to the present invention adding surfactant to an aqueous solution of a polypeptide stabilizes the alpha-helix configuration. Circular dichroism is a measurement of the amount of the alpha-helix configured polypeptide present in the solution. Thus, circular dichroism provides an indirect measurement of the degree of binding of the surfactant to the polypeptide. (See, for example, Epand R. M., Epand R. F., Orlowski R. C., Schuleter R. J., Boni L. T. and Hui S. W., Biochemistry 22, 5074-5084 (1983); Hui, S. W., Epand R. M., Dell K. R., Epand R. F. and Orlowski R. C., Biochimica Biophysica Acta 772, 264-272 (1984); Epand R. M., Epand R. F., and Orlowski R. C., International Journal Peptide Protein Research 25 105-111; Epand R. M., Epand R. F., Orlowski R. C., Seyler J. K. and Colescott R. L., Biochemistry 25, 1964-1968; Epand R. M., Seyler J. K. and Orlowski R. C., European Journal Biochemistry 159, 125-127 (1986); Wiersema P. H., Loeb A. L. and Overbeek, J., Colloid Interface Science 22, 78-99 (1966)).
The surfactant/peptide circular dichroism (CD) spectra were obtained in a 2 mm path-length cell (110-Q-2 Model, AVIV, Lakewood, N.J.) at 32° C. The cell was initially loaded with 0.60 mL of a solution containing about 0.25 mg/mL of the peptide in 10 mM sodium chloroacetate (pH 3.5) or 10 mM sodium borate (pH 9.0). The buffers were selected to minimize the effect of the temperature on the pH of the solution and to minimize light absorption, thereby optimizing the signal-to-noise ratio (SNR). The peptide concentration was determined by spectrophotometry, with log-log correction for light scattering. The surfactant concentration was increased step-wise by titration of concentrated surfactant stock directly into the CD cell, followed by eight inversions of the cell, with the air bubble providing the mixing turbulence. After mixing, the cell was placed into the AVIV 62 CD spectrometer (AVIV, Lakewood, N.J.). In order to approximate temperature and chemical equilibrium, the sample remained in the spectrometer 5 minutes before a reading was taken. The CD spectrum was taken using a band pass of 1 nm, a data interval of 1 nm, and a data averaging time of 10 seconds. The mean residue ellipticity is the ellipticity divided by the path length in cm times the amino acid residue concentration in decimoles/cm^3. See Methods in Enzymology, Vol 130, pp 208-269, Yang et al, "Calculation of Protein Conformation from Circular Dichroism" (1986).
(§1) The measurement procedures described above were conducted on an aqueous solution of the protein insulinotropin, with TWEEN® 20 (MW=1126 g/mol) as the surfactant, with the following modifications. The insulinotropin donor solution concentration was 0.12 mg/mL. One test was run in 10 mM sodium borate at pH 9.0 and another test in 10 mM sodium chloroacetate at pH 3.5.
(§2) Fractional changes (%δ) are defined as the difference between the reading at a given surfactant concentration (Ec) minus the reading at zero surfactant (E0), the quantity divided by the difference between the reading at saturated surfactant concentration (Es) minus the reading at zero surfactant (E0), i. e. %δ=(Ec -E0)/(Es-E0).
The measurement procedures described earlier were conducted on an aqueous solution of insulinotropin as the agent, and TWEEN® 40 (molecular weight 1282 g/mol) as the surfactant with the following changes. The insulinotropin concentration was initially 0.29 mg/mL, and 0.21 mg/mL after the final TWEEN® 40 addition and the temperature was held at 32° C. Two tests were conducted at two different concentrations of TWEEN® 40. […]

[2] = Electrophoretic mobility by capillary zone electrophoresis; type: physicochemical; conditions: no surfactant
Experimental: Since electrophoretic mobility (ie, the ability of a drug/agent to migrate in an electric field) is an important aspect of electrotransport drug delivery, the electrophoretic mobility of the drug/agent being delivered is predictive of suitability for transdermal electrotransport delivery. Electrophoretic mobility measurements were performed using a capillary zone electrophoresis instrument (model 2100 P/ACE instrument, Beckman Instruments, Inc., Palo Alto, Calif.). At acid pH values DB-WAX, DB-1, DB-17 (J&W Scientific, Folsom, Calif.) capillary columns were used either with 50 or 100 micron internal diameter column and CElect H75 (Supelco, Bellefonte, Pa.) capillary column with a 75 micron internal diameter. At alkaline pH values uncoated silica capillaries of length 57 cm with an internal diameter of 75 microns were used with an applied voltage of 20 kV. If any electroosmotic flow was present, it was detected using a neutral marker such as 0.01% benzyl alcohol (SIGMA, St. Louis, Mo.) or 1/500 mesityl oxide (Applied Biosystems, Foster City, Calif.). The optimum voltage was determined by doing an Ohm's Law test on each buffer and capillary system. The temperature of the capillary columns was set at 32° C. and a two second pressure injection was done. A UV detector was used to monitor peptide and markers at either 214 or 280 nm.
Voltage injection had to be used for the 27 cm length column. The voltage applied varied depending on the capillary length.
The following equation was used to determine electrophoretic mobility μ. [formula]
If the electroosmotic flow is detected, the following equation can be used.
μpeptide =μtotal -μneutral marker
as §1, §2
The measurement procedures described earlier were conducted in this example on an aqueous solution containing insulinotropin as the agent and dodecyl trimethyl ammonium chloride (DTAC) as the ionic surfactant with the following modifications. […]
The same measurement procedures were conducted using an aqueous solution of salmon calcitonin as the agent and the zwitterionic dodecyl sulfobetaine as the surfactant with the following modifications. The temperature was initially 32° C., the surfactant concentration was varied up to 30 mM, and the calcitonin concentration was 0.06 to 0.08 mM. Tables 7, 8, and 9 below provide the results obtained in terms of polypeptide ellipticity expressed as a function of zwitterionic surfactant concentration at pH 3.5 in 12 mM sodium chloroacetate (Table 7), 5.0 in 4 mM piperazine HCI (Table 8), and 6.5 in 15 mM sodium cacodylate (Table 9), respectively. Table 8, in addition, provides the results obtained on electrophoretic mobility and HIC retention time in a phenyl superose column at pH 5.0.

[3] = Hydrophobicity by hydrophobic interaction chromatography (HIC), phenyl Superose column (retention time, ta/tm); type: physicochemical; conditions: for HIC Retention Time (Phenyl Superose Col.): no surfactant
Experimental: The hydrophobicity of an agent (eg, an agent such as a polypeptide or protein in solution, as well as the relative increase or decrease thereof) is determined by passing the agent-containing solution through a chromatography column filled with a particular "hydrophobic interaction" bead material and measuring either (1) the time required for the agent to elute (ie, pass through) the column or (2) the volume of liquid (ie, the same liquid used in the agent-containing sample, but with the agent removed) required to be pumped through the column in order to elute the agent. For the purposes of the present invention, the hydrophobicity of an agent is defined in terms relative to the marker compound, N-acetyl tryptophanamide (sold by Sigma Chemical, St. Louis, Mo.), which has a somewhat moderate hydrophobicity. Hydrophobicity, as that term is used herein, is measured using a 5 mm diameter glass column having a length of 5 cm (ie, column volume of 1.0 mL) and packed with cross-linked agar beads having an average particle size of 13.5 μm. Examples of suitable hydrophobic bead materials include cross-linked agar gel beads (Superose 12) having hydrophobic ligands attached to the agar via chemically stable ether linkages ((Superose 12)--O--CH2 --CHOH--CH2 --O--R) such as alkyl-Superose wherein R is --CH2 --C(CH3)3 and phenyl-Superose wherein R is phenyl, both of which are sold in pre-packaged column form by Pharmacia Biotech, Inc. of Piscataway, N.J. Immediately downstream from the column is placed a flow cell which permits continuous UV absorbance measurements of the solution flowing out of the column. Suitable flow cells and UV absorbance detectors are sold by Perkin-Elmer Corp., Applied Biosystems, Foster City, Calif. Hydrophobicity measurements are conducted at 32° C. with the same buffer that is used in the electrotransport system which is used to deliver the agent (eg, transdermally) to the patient. The buffer strength used in the hydrophobicity measurements is 10 mM ionic strength. The term "certain hydrophobicity" as used herein, means that the time required for the agent to elute from the column, relative to the time required for N-acetyl tryptophanamide to elute, is as follows:
ta /tm >0.7, and preferably ta /tm >3
ta is the time at which the peak UV absorbance value is recorded for the beneficial agent in the flow cell, less the time required to initially fill the column with the agent-containing solution (ie, dead volume retention time); and
tm is the time at which the peak UV absorbance value is recorded for the N-acetyl tryptophanamide marker in the flow cell, less the time required to initially fill the column with the marker-containing solution (ie, dead volume retention time).
The above described measurement of agent hydrophobicity is substantially independent of column size and flow rate through the column.
One method of measuring the hydrophobicity of an agent such as a polypeptide or protein is by hydrophobic interaction chromatography (HIC). The principles and conditions associated with HIC are fully described in Protein Purification: Principles, High Resolution Methods, and Applications, Janson and Ryden, Eds., pp. 207-226 (1989), the pertinent portions of which are incorporated herein by reference. This method requires passing a composition through a hydrophobic interaction column and measuring the volume of solvent required for its complete elution. The hydrophobic sites on the agent are generally attracted to hydrophobic groups, such as aryl groups, affixed to beads placed within the column. A preferred HIC column material is phenyl-superose (Pharmacia, Sweden), a cross-linked polysaccharide which has been covalently modified to have pendant hydrophobic aryl groups. These pendant groups are similar to the hydrophobic or lipophilic species in the skin layers. Thus, this hydrophobic interaction column approximates, and is a good in vitro model for, an animal's skin layer as a barrier to transport of a polypeptide or protein. […]

[4] = pH 6.5
Experimental: A. Preparation of Human Skin Samples
Human cadaver skin was prepared by first removing about 1 mm thick skin samples in the form of strips. The skin strips were placed in polyethylene bags, sealed and placed in a refrigerator at about 4° C. for temporary storage. Prior to use in the electrotransport cell, the skin strips were placed in one-liter beakers containing water at 60° C. for about 90 seconds with gentle stirring. Then, the skin strips were removed and placed onto the absorbent side of a piece of BENCHKOTE™ material with the dermis side down. Using flat tipped tweezers to retain the dermis, the epidermis was removed from each strip with a round-tip spatula. Each epidermis, stratum corneum side up, was transferred to a PYREX™ glass tray filled with water. Each floating epidermis was stretched essentially flat. After removal from the water 2.22 cm (7/8 in) diameter disks of each epidermis were punched out of areas having negligible surface damage. The discs were stored at 4° C. in a sealed container with water droplets to maintain their moisture.
B. Set-up of Electrotransport Cell and Composition […]
The solution concentration of the polypeptide in the donor compartment 44 was, unless otherwise specified, 1 mM. […] The polypeptide flux was determined by periodic sampling of the solution in the receptor compartment 46. […]

Molecule: CCCCCCCCCCCC[N+](C)(C)C.[Cl-] [DTAC, dodecyl trimethyl ammonium chloride, reference compound]
surfactant concentration at which an ellipticity of -9000 occurs [1]: about 3.0 mM

Molecule: Lysozyme: protein, molecular weight 14,315 g/mol
Electrophoretic Mobility [2]: 2.4 × 10^-4 cm^2 /V-s
HIC Retention Time (Phenyl Superose Col.) [3]: 24.0 min

in vitro Skin Flux [4]: l.3 μg/cm^2 -hr
ta /tm ([3]; 10 mM HIS buffer, pH 7.0): 0.6
ta /tm ([3]; HIS buffer, pH 7.2): 0.5
ta /tm ([3]; pH 6.5 (10 mM histidine), no enhancer): 0.8
ta /tm ([3]; pH 6.5 (10 mM histidine), no enhancer, listed as decapeptide): about 0.8
ta /tm ([3]; pH 6.5, with 3 mM Tween 20): 0.9
Molecule: D-Glu-D-Tyr-D-Leu-D-Lys-D-Ata-D-Leu-D-Leu-D-Ser-D-Lys-D-Leu-NH2 [Model Decapeptide, reference compound]

Molecule: Cytochrome C: protein, molecular weight 12,400 g/mol
Electrophoretic Mobility [2]: 2.5 × 10^-4 cm^2 /V-s
HIC Retention Time (Phenyl Superose Col.) [3]: 2.0 min

B1: Ribonuclease: protein, molecular weight 13,686 g/mol (protein, UniProt P61823 27-150, looked up)
Ribonuclease pancreatic: KETAAAKFERQHMDSSTSAASSSNYCNQMMKSRNLTKDRCKPVNTFVHESLADVQAVCSQKNVACKNGQTNCYQSYSTMSITDCRETGSSKYPNCAYKTTQANKHIIVACEGNPYVPVHFDASV
Electrophoretic Mobility [2]: 1.9 × 10^-4 cm^2 /V-s
HIC Retention Time (Phenyl Superose Col.) [3]: 12.1 min
